From patent US11149031B2, “Substituted N-(3-fluoropropyl)-pyrrolidine compounds, processes for their preparation and therapeutic uses thereof” (SANOFI, priority 2016, dated 2021)
Where two headings read alike, the source gives them in different places.

What was measured:
[1] = biological target: His6-ERα298-554 WT (ERα ligand-binding domain) (Homo sapiens (Human), UniProt P03372); assay: Test A: biochemical antagonist activity, LanthaScreen TR-FRET ERα coactivator assay, WT; conditions: read-out: Antagonism WT IC50
In short: (§1)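 IC50 values come from a 4-parameter logistic fit of the 520:495 nm TR-FRET ratio after overnight room-temperature incubation. The mix held 0.5 nM ERα 298–554 LBD, Tb-labelled anti-His6 antibody, 250 nM PGC1a peptide and 3 nM or 10 nM estradiol, pH 7.4 phosphate buffer with DTT.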

[2] = biological target: His6-ERα298-554 D538G mutant (ERα ligand-binding domain) (Homo sapiens (Human), UniProt P03372, D538G); assay: Test A: biochemical antagonist activity, LanthaScreen TR-FRET ERα coactivator assay, D538G mutant; conditions: read-out: Antagonism D538G IC50
In short: as §1

[3] = biological target: His6-ERα298-554 Y537S mutant (ERα ligand-binding domain) (Homo sapiens (Human), UniProt P03372, Y537S); assay: Test A: biochemical antagonist activity, LanthaScreen TR-FRET ERα coactivator assay, Y537S mutant; conditions: read-out: Antagonism Y537S IC50
In short: as §1

[4] = tested on: MCF7 cells (breast tumor cells) WT; assay: Test B: cell proliferation/viability assay (CellTiter-Glo) on MCF7 WT; type: cell-based; conditions: Homo sapiens, MCF7, 168 h, 7 days of compound exposure
In short: (§2)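 Viability is measured in MCF7 cells, either parental or engineered to depend on mutant estrogen receptor. Compounds act for 7 days at final concentrations from 3 to 0.000001 μM in hormone-depleted medium, with ATP luminescence as the read-out.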

[5] = tested on: MCF7 cells expressing mutant estrogen receptor Tyr 537 Ser; assay: Test B: cell proliferation/viability assay (CellTiter-Glo) on MCF7 Tyr 537 Ser mutant; type: cell-based; conditions: Homo sapiens, MCF7, 168 h, MCF7 cells expressing ER Tyr 537 Ser mutant, 7 days of compound exposure, read-out: proliferation MCF7 Y537S IC50
In short: as §2

[6] = tested on: MCF7 cells expressing mutant estrogen receptor Asp 538 Gly; assay: Test B: cell proliferation/viability assay (CellTiter-Glo) on MCF7 Asp 538 Gly mutant; type: cell-based; conditions: Homo sapiens, MCF7, 168 h, MCF7 cells expressing ER Asp 538 Gly mutant, 7 days of compound exposure, read-out: proliferation MCF7 D538G IC50
In short: as §2

[7] = biological target: ERα in MCF7 cells (Homo sapiens (Human), UniProt P03372); assay: Test C: estrogen receptor degradation activity, ERα in cell western assay in MCF7 cells; type: cell-based; conditions: for DC50: 4 hours post compound addition, ERα in cell western, read-out: Degradation IC50; for % Degradation at 3 μM: 4 hours, relative to fulvestrant
In short: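 Degradation of ERα was gauged in MCF7 cells after 4 h treatment, by fluorescence immunostaining normalised against DNA content.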

[8] = asterisk (*): protocol using 10 nM estradiol

ERα in MCF7 cells, sequence (P03372 whole entry): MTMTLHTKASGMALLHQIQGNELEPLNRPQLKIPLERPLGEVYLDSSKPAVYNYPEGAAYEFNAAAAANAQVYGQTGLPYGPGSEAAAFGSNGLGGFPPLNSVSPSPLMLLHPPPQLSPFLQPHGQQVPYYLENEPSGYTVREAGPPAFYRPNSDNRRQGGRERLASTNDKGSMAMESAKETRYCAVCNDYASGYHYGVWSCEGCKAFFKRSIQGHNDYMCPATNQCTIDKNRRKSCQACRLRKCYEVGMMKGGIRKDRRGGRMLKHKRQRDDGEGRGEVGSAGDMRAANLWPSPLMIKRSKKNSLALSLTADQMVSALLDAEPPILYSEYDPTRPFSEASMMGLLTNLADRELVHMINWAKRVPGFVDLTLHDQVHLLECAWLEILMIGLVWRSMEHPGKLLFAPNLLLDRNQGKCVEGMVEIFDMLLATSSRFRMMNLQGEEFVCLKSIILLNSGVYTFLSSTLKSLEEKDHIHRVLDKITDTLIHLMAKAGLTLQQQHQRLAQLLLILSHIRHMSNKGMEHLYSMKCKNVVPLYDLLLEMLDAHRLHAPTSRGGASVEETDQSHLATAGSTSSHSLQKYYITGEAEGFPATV
His6-ERα298-554 D538G mutant (ERα ligand-binding domain), sequence (P03372 298-554 D538G): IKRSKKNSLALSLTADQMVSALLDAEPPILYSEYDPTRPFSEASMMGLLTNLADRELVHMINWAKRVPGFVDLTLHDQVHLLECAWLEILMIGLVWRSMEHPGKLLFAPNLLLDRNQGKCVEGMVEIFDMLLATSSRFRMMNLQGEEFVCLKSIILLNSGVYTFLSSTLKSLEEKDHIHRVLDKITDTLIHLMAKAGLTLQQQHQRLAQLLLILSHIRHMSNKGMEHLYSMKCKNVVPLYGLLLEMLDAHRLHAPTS
His6-ERα298-554 WT (ERα ligand-binding domain), sequence (P03372 298-554): as the sequence (P03372 298-554 D538G) above, with G241D counted along it
His6-ERα298-554 Y537S mutant (ERα ligand-binding domain), sequence (P03372 298-554 Y537S): as the sequence (P03372 298-554 D538G) above, with Y240S, G241D counted along it

Row | Structure (SMILES) | IC50 ([1]; protocol with 3 nM estradiol) | IC50 ([2]; protocol with 3 nM estradiol) | IC50 ([3]; protocol with 3 nM estradiol) | IC50 [4] | IC50 [5] | IC50 [6] | DC50 [7] | % Degradation at 3 μM [7] | IC50 [1, 8] | IC50 [2, 8] | IC50 [3, 8]
1 | CC1(C)Cc2cc(C3=C(c4ccc(O[C@H]5CCN(CCCF)C5)cc4)c4ccc(O)cc4SCC3)ccc2N1 [Example 198, 4-(2,2-dimethylindolin-5-yl)-5-[4-[(3S)-1-(3-fluoropropyl)pyrrolidin-3-yl]oxyphenyl]-2,3-dihydro-1-benzothiepin-8-ol] | 1 nM | 8 nM | 6 nM | 0.4 nM | 6 nM | 1 nM | 0.2 nM | 87% | – | – | –
2 | CC1Cc2cc(C3=C(c4ccc(O[C@H]5CCN(CCCF)C5)cc4)c4ccc(O)cc4SCC3)ccc2O1 (stereo partly drawn) [Example 197, 5-[4-[(3S)-1-(3-fluoropropyl)pyrrolidin-3-yl]oxyphenyl]-4-(2-methyl-2,3-dihydrobenzofuran-5-yl)-2,3-dihydro-1-benzothiepin-8-ol] | – | – | – | 0.3 nM | 5 nM | 0.6 nM | 0.2 nM | 88% | 1 nM | 20 nM | 13 nM
3 | CC1(C)CNc2ccc(C3=C(c4ccc(O[C@H]5CCN(CCCF)C5)cc4)c4ccc(O)cc4SC3)cc21 [Example 73, 3-(3,3-dimethylindolin-5-yl)-4-[4-[(3S)-1-(3-fluoropropyl)pyrrolidin-3-yl]oxyphenyl]-2H-thiochromen-7-ol] | – | – | – | 95 nM | 377 nM | 119 nM | 6 nM | 86% | 1110 nM | > 4000 nM | > 4000 nM
4 | CC(C)(C)OC(=O)N1CCOc2ccc(C3=C(c4ccc(O[C@H]5CCN(CCCF)C5)cc4)c4ccc(O)cc4SC3)cc21 [Example 59, tert-butyl 6-[4-[4-[(3S)-1-(3-fluoropropyl)pyrrolidin-3-yl]oxyphenyl]-7-hydroxy-2H-thiochromen-3-yl]-2,3-dihydro-1,4-benzoxazine-4-carboxylate] | – | – | – | 27 nM | > 999 nM | > 999 nM | 0.9 nM | 81% | 879 nM | > 4000 nM | > 4000 nM
5 | CCOc1ccc(C2=C(c3ccc(O[C@H]4CCN(CCCF)C4)cc3)c3ccc(O)cc3SCC2)c(F)n1 [Example 187, 4-(6-ethoxy-2-fluoro-3-pyridyl)-5-[4-[(3S)-1-(3-fluoropropyl)pyrrolidin-3-yl]oxyphenyl]-2,3-dihydro-1-benzothiepin-8-ol] | 1.5 nM | 43 nM | 22 nM | 0.2 nM | 4 nM | 0.7 nM | 0.5 nM | 92% | – | – | –
6 | CC(C)(C)c1ccc(C2=C(c3ccc(O[C@H]4CCN(CCCF)C4)cc3)c3ccc(O)cc3SC2)cc1 [Example 52, 3-(4-tert-butylphenyl)-4-[4-[(3S)-1-(3-fluoropropyl)pyrrolidin-3-yl]oxyphenyl]-2H-thiochromen-7-ol] | – | – | – | 2 nM | 41 nM | 3 nM | 1 nM | 84% | 351 nM | > 4000 nM | 2910 nM
7 | Oc1ccc2c(c1)SCCC(c1ccc(OC(F)(F)F)c(F)c1)=C2c1ccc(O[C@H]2CCN(CCCF)C2)cc1 [Example 190, 5-[4-[(3S)-1-(3-fluoropropyl)pyrrolidin-3-yl]oxyphenyl]-4-[3-fluoro-4-(trifluoromethoxy)phenyl]-2,3-dihydro-1-benzothiepin-8-ol] | – | – | – | 0.2 nM | 6 nM | 0.8 nM | 0.5 nM | 91% | 39 nM | 638 nM | 425 nM
8 | CONC(=O)c1cc(C2=C(c3ccc(O[C@H]4CCN(CCCF)C4)cc3)c3ccc(O)cc3SCC2)ccc1F [Example 199, 2-fluoro-5-[5-[4-[(3S)-1-(3-fluoropropyl)pyrrolidin-3-yl]oxyphenyl]-8-hydroxy-2,3-dihydro-1-benzothiepin-4-yl]-N-methoxy-benzamide] | – | – | – | 0.2 nM | 4 nM | 0.2 nM | 0.4 nM | 94% | 21 nM | 456 nM | 316 nM
9 | CC1(C)Cc2cc(C3=C(c4ccc(O[C@H]5CCN(CCCF)C5)cc4)c4ccc(O)cc4SC3)ccc2N1 [Example 29, 3-(2,2-dimethylindolin-5-yl)-4-[4-[(3S)-1-(3-fluoropropyl)pyrrolidin-3-yl]oxyphenyl]-2H-thiochromen-7-ol] | – | – | – | 0.4 nM | 6 nM | 0.9 nM | 0.2 nM | 92% | 14 nM | 240 nM | 130 nM
10 | Cc1ccc(C2=C(c3ccc(O[C@H]4CCN(CCCF)C4)nc3)c3ccc(O)cc3CCC2)c(F)c1 [Example 237, 6-(2-fluoro-4-methyl-phenyl)-5-[6-[(3S)-1-(3-fluoropropyl)pyrrolidin-3-yl]oxy-3-pyridyl]-8,9-dihydro-7H-benzo[7]annulen-2-ol] | – | – | – | 0.3 nM | 5 nM | 0.7 nM | 0.2 nM | 92% | 0.6 nM | 7 nM | 5 nM
11 | CCOc1ccc(C2=C(c3ccc(O[C@H]4CCN(CCCF)C4)cc3)c3ccc(O)cc3OCC2)c(C)c1 [Example 119, 4-(4-ethoxy-2-methyl-phenyl)-5-[4-[(3S)-1-(3-fluoropropyl)pyrrolidin-3-yl]oxyphenyl]-2,3-dihydro-1-benzoxepin-8-ol] | 2 nM | 10 nM | 6 nM | 0.6 nM | 5 nM | 0.5 nM | 1 nM | 91% | – | – | –
12 | CC1(C)Cc2cc(C3=C(c4ccc(O[C@H]5CCN(CCCF)C5)cc4)c4ccc(O)cc4SCC3)ccc2O1 [Example 201, 4-(2,2-dimethyl-3H-benzofuran-5-yl)-5-[4-[(3S)-1-(3-fluoropropyl)pyrrolidin-3-yl]oxyphenyl]-2,3-dihydro-1-benzothiepin-8-ol] | – | – | – | 0.2 nM | 8 nM | 1 nM | 0.8 nM | 85% | 1 nM | 21 nM | 15 nM
13 | CCOc1ccc(C2=C(c3ccc(O[C@H]4CCN(CCCF)C4)cc3)c3ccc(O)cc3SCC2)c(C)c1 [Example 186, 4-(4-ethoxy-2-methyl-phenyl)-5-[4-[(3S)-1-(3-fluoropropyl)pyrrolidin-3-yl]oxyphenyl]-2,3-dihydro-1-benzothiepin-8-ol] | – | – | – | 0.3 nM | 5 nM | 0.4 nM | 0.6 nM | 85% | 1 nM | 21 nM | 16 nM
14 | Cc1cc(C2=C(c3ccc(O[C@H]4CCN(CCCF)C4)cc3)c3ccc(O)cc3SCC2)ccc1Cl [Example 162, 4-(4-chloro-3-methyl-phenyl)-5-[4-[(3S)-1-(3-fluoropropyl)pyrrolidin-3-yl]oxyphenyl]-2,3-dihydro-1-benzothiepin-8-ol] | 4 nM | 24 nM | 19 nM | 0.4 nM | 5 nM | 1 nM | 0.8 nM | 90% | – | – | –
15 | Oc1ccc2c(c1)OCCC(c1ccc3c(c1)CCO3)=C2c1ccc(O[C@H]2CCN(CCCF)C2)cc1 [Example 151, 4-(2,3-dihydrobenzofuran-5-yl)-5-[4-[(3S)-1-(3-fluoropropyl)pyrrolidin-3-yl]oxyphenyl]-2,3-dihydro-1-benzoxepin-8-ol] | – | – | – | 0.3 nM | 7 nM | 1 nM | 0.4 nM | 90% | 6 nM | 88 nM | 68 nM
16 | Cc1ccc(C2=C(c3ccc(O[C@H]4CCN(CCCF)C4)nc3)c3ccc(O)cc3SCC2)c(Cl)c1 [Example 206, 4-(2-chloro-4-methyl-phenyl)-5-[6-[(3S)-1-(3-fluoropropyl)pyrrolidin-3-yl]oxy-3-pyridyl]-2,3-dihydro-1-benzothiepin-8-ol] | – | – | – | 0.3 nM | 4 nM | 0.7 nM | 0.4 nM | 85% | 0.7 nM | 13 nM | 9 nM
